Data set [1] is described as follows: Pharmacokinetic study in healthy adults of single vs. multiple oral doses of colchicine tablets (Example 1). The following applies: for metabolite plasma concentration: after oral colchicine 0.6 mg single and multiple doses, LOQ 0.2 ng/mL, 13 subjects.
Method: Subjects received a light breakfast served 60 minutes following dose administration in the morning and the evening dose was administered 90 minutes after an evening meal on Days 15 through 24 only. […] Study periods were separated by a 14-day washout. Following the single dose and the last dose of the multiple dose regimen (beginning on the mornings of Day 1 and Day 25, respectively), blood samples were collected (6 mL each) from each subject within 1 hour prior to dosing and after dose administration at study hours 0.5, 1, 1.5, 2, 3, 4, 6, 8, 10, 12, and 24 (while confined) and 36, 48, 72, and 96 (on an outpatient basis).
In tables, the parameter CL/F denotes the apparent total body clearance after administration, calculated as Total Dose/Total AUC0-tau; and Vd/F denotes the apparent total volume of distribution after administration, calculated as Total Dose/(Total AUC∞×Kel).
These include plasma concentration (C), as well as Cmax, Cn, C24, Tmax, and AUC. “Cmax” is the measured plasma concentration of the active agent at the point of maximum, or peak, concentration. “Cmin” is the measured plasma concentration of the active agent at the point of minimum concentration. “Cn” is the measured plasma concentration of the active agent at about n hours after administration. […] The term “Tmax” refers to the time from drug administration until Cmax is reached. “AUC” is the area under the curve of a graph of the measured plasma concentration of an active agent vs. time, measured from one time point to another time point. […] Time t can be the last time point with measurable plasma concentration for an individual formulation. The AUC0-∞, AUC∞ or AUC0-inf is the calculated area under the curve of plasma concentration versus time from time 0 to time infinity.
The conditions of data set [2]: colchicine given concomitantly with the named drug; cited from earlier work.
The conditions of data set [3]: colchicine in plasma, N=23.
For data set [4] the following is noted: colchicine in plasma, single 0.6 mg dose alone (Day 1) or with cyclosporine 100 mg (Day 15), N=23.
Method: (§1) This study was an open-label, non-randomized, single-center, one-sequence, two-period drug interaction study conducted in healthy male and female volunteers. Twenty-four (24) non-smoking, non-obese adult volunteers were enrolled. All subjects were dosed and studied as a single cohort, with each subject receiving the same treatment in a non-randomized fashion.
(§2) Pharmacokinetic parameters referred to herein describe the in vivo characteristics of drug (or a metabolite or a surrogate marker for the drug) over time. These include plasma concentration (C), as well as Cmax, Cn, C24, Tmax, and AUC. “Cmax” is the measured plasma concentration of the active agent at the point of maximum, or peak, concentration. “Cmin” is the measured plasma concentration of the active agent at the point of minimum concentration. “Cn” is the measured plasma concentration of the active agent at about n hours after administration. […] The term “Tmax” refers to the time from drug administration until Cmax is reached. “AUC” is the area under the curve of a graph of the measured plasma concentration of an active agent vs. time, measured from one time point to another time point. […] Time t can be the last time point with measurable plasma concentration for an individual formulation. The AUC0-∞, AUC∞ or AUC0-inf is the calculated area under the curve of plasma concentration versus time from time 0 to time infinity.
For data set [5] the following is noted: colchicine in plasma; single 0.6 mg dose alone (Day 1) or with steady-state diltiazem (Day 21); N=20; arithmetic mean.
Method: as §1, §2
Assay in data set [6]: not given
The source holds these as a separate data set.

For data set [7] the following is noted: for AUC0-t, geometric mean / AUC∞, geometric mean / Cmax, geometric mean: single 0.6 mg dose alone or with steady-state ritonavir 100 mg b.i.d., ln-transformed data.
Method: An open-label, non-randomized, single-center, one-sequence, two-period drug interaction study was conducted in healthy male and female volunteers; there will be a 14-day washout between the two periods. Twenty-four (24) non-smoking, non-obese adult volunteers were enrolled. All subjects were dosed and studied as a single cohort, with each subject receiving the same treatment in a non-randomized fashion.
On the evening of Day 18, study participants remained at the clinic for their final study confinement period.
as §2
A short description of data set [8]: Clinical drug-drug interaction study of colchicine and verapamil (Example 8). The following applies: for AUC0-inf: both, human, in vivo, 0.6 mg.
Method: as §1, §2
A further data set concerns FMF patients. As to conditions: reported; cited from earlier work.
Data set [9] can be described thus: clinical. As to conditions: both, human, plasma, 0.6 mg.
Method: as §1, §2
A short description of data set [10]: clinical. The following applies: both, human, plasma, oral, 0.6 mg, geometric mean, colchicine in plasma, single 0.6 mg dose alone or with steady-state ketoconazole 200 mg b.i.d., ln-transformed data.
From the text: This study was an open-label, non-randomized, single-center, one-sequence, two-period drug interaction study conducted in healthy male and female volunteers; there will be a 14-day washout between the two periods. Twenty-four (24) non-smoking, non-obese adult volunteers were enrolled.
as §2
Data set [11] can be described thus: clinical. The following applies: both, human, plasma, oral, 0.6 mg, colchicine in plasma.
Method: This study was an open-label, non-randomized, single-center, one-sequence, two-period drug interaction study conducted in healthy male and female volunteers; there was a 14-day washout between the two periods. Twenty-four (24) non-smoking, non-obese adult volunteers were enrolled. All subjects were dosed and studied as a single cohort, with each subject receiving the same treatment in a non-randomized fashion.
Azithromycin was administered for 5 consecutive days (2×250 mg once daily [Day 15 only] and then 1×250 mg once daily Days 16-19) beginning on the morning of Day 15, with the last 250 mg azithromycin dose administered on the morning on Day 19.
Azithromycin plasma concentrations were not measured.
as §2
Data set [12] is described as follows: clinical. As to conditions: both, human, plasma, 0.6 mg, colchicine in plasma, single 0.6 mg dose alone (Day 1) or with steady-state diltiazem (Day 21), N=20, arithmetic mean.
Method: as §1, §2
[13] abbreviates: colchicine in plasma, single 0.6 mg dose alone (Day 1) or with steady-state azithromycin (Day 19), N=21, arithmetic mean.
Setting [14] is: colchicine in plasma, single 0.6 mg dose alone or with steady-state azithromycin.
Setting [15] is: colchicine, single 0.6 mg dose alone or with steady-state azithromycin, N=21, arithmetic mean.
The mark [16] stands for this setting: single 0.6 mg dose alone (Day 1) or with steady-state clarithromycin (Day 29), arithmetic mean.
The mark [17] stands for this setting: colchicine in plasma, single 0.6 mg dose alone or with steady-state ketoconazole 200 mg b.i.d., ln-transformed data.
Where [18] appears, read: colchicine in plasma, single 0.6 mg dose alone (Day 1) or with steady-state ritonavir (Day 19), N=18, arithmetic mean.
The mark [19] stands for this setting: colchicine in plasma, listed as Colchicine + Ritonovir.
The mark [20] stands for this setting: colchicine in plasma, single 0.6 mg dose alone (Day 1) or with steady-state verapamil (Day 19), N=24, arithmetic mean.
The mark [21] stands for this setting: colchicine in plasma, single 0.6 mg dose alone or with steady-state verapamil HCl ER 240 mg once daily.
Where [22] appears, read: co-administration with ritonavir 100 mg b.i.d. x 5 days.
The mark [23] stands for this setting: following ritonavir 100 mg b.i.d. x 5 days vs colchicine alone.
Where [24] appears, read: single oral 0.6 mg colchicine following ketoconazole 200 mg b.i.d. x 5 days vs alone.
[25] abbreviates: co-administration with azithromycin.
Setting [26] is: following azithromycin 500 mg then 250 mg x 4 days vs colchicine alone.
Setting [27] is: multiple (b.i.d. x 10 days) oral doses colchicine 0.6 mg, after last dose Day 25, healthy adults N=13.
[28] abbreviates: single oral dose colchicine 0.6 mg, fasted, healthy adults N=13.

The text below walks through data of US8093297B2 (Mutual Pharmaceutical Company, Inc., priority 2009, dated 2012).

A word on the Cmax: it is the maximum level reached in the sampled fluid or tissue. Usually CL/F stands for clearance divided by bioavailability, as obtained after extravascular dosing. Usually Tmax stands for the time at which the peak concentration occurs.

Structures are written as SMILES. Where two headings read alike, the source gives them in different places. A value given as a limit tells only on which side of the number the result lay.

Turning to `COc1cc2c(c(OC)c1O)-c1ccc(OC)c(=O)cc1[C@@H](NC(C)=O)CC2` [2-DMC, 2-O-demethylcolchicine], the metabolite plasma concentration in data set [1] is reported as < 0.2 ng/mL.

For the compound `COc1c(O)cc2c(c1OC)-c1ccc(OC)c(=O)cc1[C@@H](NC(C)=O)CC2` [3-DMC, 3-O-demethylcolchciine], the metabolite plasma concentration entry in data set [1] is reported as “only one sample from 1 subject (of 13 subjects) had a detectable”.

For `CC[C@H]1OC(=O)[C@H](C)[C@@H](O[C@H]2C[C@@](C)(OC)[C@@H](O)[C@H](C)O2)[C@H](C)[C@@H](O[C@@H]2O[C@H](C)C[C@H](N(C)C)[C@H]2O)[C@](C)(OC)C[C@@H](C)C(=O)[C@H](C)[C@@H](O)[C@]1(C)O` [Clarithromycin], the “Noted or Anticipated Outcome: toxicity reported with concomitant colchicine” value in data set [2] is on record as “fatal colchicine toxicity”.

Under setting [13], `COc1cc2c(c(OC)c1OC)-c1ccc(OC)c(=O)cc1[C@@H](NC(C)=O)CC2` [Colchicine + Azithromycin] showed an AUC0-t of 17.16 ng·h/mL and a Cmax of 3.05 ng/mL. Moreover, under setting [14], the “AUC0-t, geometric mean” value was 16.09052 ng·h/mL; the “AUC∞, geometric mean” value was found to be 18.31283 ng·h/mL; the “Cmax, geometric mean” value is 2.85622 ng/mL. Under setting [15], the CL/F stood at 35.01 L/h and the t1/2 came out at 6.71 h.

Take `COc1cc2c(c(OC)c1OC)-c1ccc(OC)c(=O)cc1[C@@H](NC(C)=O)CC2` [Colchicine + Clarithromycin]: in [3] (setting [16]), the AUC0-inf was determined as 52.62 ng·h/mL, the AUC0-t was determined as 41.95 ng·h/mL and the Cmax amounted to 8.44 ng/mL. In data set [3] (single 0.6 mg dose alone or with steady-state clarithromycin, range printed beside), the “Tmax (hr)*” value turned out to be 1.00 h.

For `COc1cc2c(c(OC)c1OC)-c1ccc(OC)c(=O)cc1[C@@H](NC(C)=O)CC2` [Colchicine + Cyclosporine], the “Tmax (hr)*” value in data set [4] amounted to 1.13 h. In data set [4] (arithmetic mean), this compound displayed an AUC0-inf of 47.31 ng·h/mL, an AUC0-t of 39.83 ng·h/mL and a maximum concentration (Cmax) of 8.82 ng/mL.

For the compound `COc1cc2c(c(OC)c1OC)-c1ccc(OC)c(=O)cc1[C@@H](NC(C)=O)CC2` [Colchicine + Diltiazem], in data set [5], the AUC0-t was 17.73 ng·h/mL, the “AUC0-∞” value is 22.49 ng·h/mL and the Cmax turned out to be 2.80 ng/mL.

`COc1cc2c(c(OC)c1OC)-c1ccc(OC)c(=O)cc1[C@@H](NC(C)=O)CC2` [Colchicine + Ketoconazole]: in [6] (setting [17]), the “AUC0-t, geometric mean” value was determined as 33.2238 ng·h/mL; the “AUC∞, geometric mean” value amounted to 42.143 ng·h/mL; the “Cmax, geometric mean” value turned out to be 5.0785 ng/mL. The “Tmax (hr)*” value in data set [6] (colchicine in plasma, single 0.6 mg dose alone or with steady-state ketoconazole, N=23, *Median (Range) for Tmax) was 1.02 h.

Turning to `COc1cc2c(c(OC)c1OC)-c1ccc(OC)c(=O)cc1[C@@H](NC(C)=O)CC2` [Colchicine + Ritonavir], in [7] (setting [18]), the AUC0-t turned out to be 29.05 ng·h/mL, the “AUC0-∞” value came out at 35.28 ng·h/mL and the Cmax was determined as 4.99 ng/mL. Further, in data set [7] (setting [19]), the “AUC0-t, geometric mean” value was determined as 27.79308 ng·h/mL; the “AUC∞, geometric mean” value is 33.77136 ng·h/mL; the “Cmax, geometric mean” value is 4.83539 ng/mL.

In the case of `COc1cc2c(c(OC)c1OC)-c1ccc(OC)c(=O)cc1[C@@H](NC(C)=O)CC2` [Colchicine + Verapamil], in data set [8] (setting [20]), the AUC0-t is 24.64 ng·h/mL, the “AUC0-∞” value is 30.59 ng·h/mL and the Cmax was determined as 3.85 ng/mL. Further, in data set [8] (setting [21]), the “AUC0-t, geometric mean” value was found to be 23.88921 ng·h/mL; the “AUC∞, geometric mean” value is 29.55675 ng·h/mL; the “Cmax, geometric mean” value came to 3.63968 ng/mL. The time of peak concentration (Tmax) in data set [8] (colchicine in plasma, single 0.6 mg dose alone or with steady-state verapamil, N=24, head says median for Tmax) came to 1.15 h.

`COc1cc2c(c(OC)c1OC)-c1ccc(OC)c(=O)cc1[C@@H](NC(C)=O)CC2` [Colchicine, (−)-N-[(7S,12aS)-1,2,3,10-tetramethoxy-9-oxo-5,6,7,9-tetrahydrobenzo[a]heptalen-7-yl]-acetamide]: the AUC0-inf was determined as 15.53 ng·h/mL in data set [3] (setting [16]); 15 ng·h/mL in “clinical [9]”; 15.4 ng·h/mL in data set [8] (AUC0-∞, colchicine in plasma, single 0.6 mg dose alone (Day 1) or with steady-state verapamil (Day 19), N=24, arithmetic mean); 14.4 ng·h/mL in [8] (AUC∞, geometric mean, colchicine in plasma, single 0.6 mg dose alone or with steady-state verapamil HCl ER 240 mg once daily). This compound also displayed an AUC0-t in [3] (setting [16]) of 12.37 ng·h/mL, an AUC0-t under setting [13] of 11.98 ng·h/mL, an AUC0-t in “clinical [9]” of 12.6 ng·h/mL and an AUC0-t in “clinical [12]” of 10 ng·h/mL. Further, the “decrease in total apparent oral clearance” value (shortened to “decrease”) in data set [7] (setting [22]) is recorded as 70%, the “decrease” value in [6] (co-administration with ketoconazole 200 mg b.i.d. x 5 days) amounted to 70% and the “decrease” value under setting [25] is listed as “approximately 30%”. Also, the “effect on Tmax” value in data set [7] (setting [22]) is reported as “not affected” and the “effect on Tmax” value under setting [25] was “not affected”. Also, the “AUC0-∞” value in data set [7] (setting [18]) is 10.41 ng·h/mL and the “AUC0-∞” value under setting [13] is 14.13 ng·h/mL. The “AUC0-t, geometric mean” value is 7.64271 ng·h/mL in data set [7] (colchicine in plasma) and 12.2564 ng·h/mL in data set [8] (setting [21]). In addition, the “AUC∞, geometric mean” value in data set [7] (colchicine in plasma) came out at 9.55174 ng·h/mL; the “AUC∞, geometric mean” value in data set [6] (setting [17]) worked out at 13.18592 ng·h/mL; the “AUC∞, geometric mean” value under setting [14] is 12.9318 ng·h/mL. In addition, the “Cmax, geometric mean” value in data set [7] (colchicine in plasma) was determined as 1.79837 ng/mL. In data set [7] (setting [23]), the “increase in exposure to a single 0.6-mg colchicine” value is given as “approximately 245%”. In addition, the “increase in mean peak colchicine concentration” value in [7] (setting [23]) was “approximately 170%” and the “increase in mean peak colchicine concentration” value under setting [26] is on record as “approximately 12%”. For the same compound, the “increase in AUC0-t of colchicine” value in data set [6] (setting [24]) came out at 190%. Besides, in [6] (setting [24]), the “increase in Cmax of colchicine” value is 90%. The compound further had an apparent clearance (CL/F) under setting [15] of 50.24 L/h and an apparent clearance CL/F in data set [8] (colchicine, single 0.6 mg dose alone or with steady-state verapamil, N=24, arithmetic mean) of 43.93 L/h. Moreover, under “concomitant administration of azithromycin (description)”, the “increase in exposure to colchicine” value is “approximately 46%”. In addition, the “increase in exposure to colchicine, AUC0-t” value under setting [26] is “approximately 46%”. Besides, the “increase in exposure to colchicine, AUC0-∞” value under setting [26] is reported as “approximately 40%”. Also, the Cmax is 2.17 ng/mL in data set [5]; 2.72 ng/mL in the data set “clinical [9]”; 2.6 ng/mL in the data set “clinical [10]”; 2.74 ng/mL in the data set “clinical [11]” (single 0.6 mg dose alone (Day 1) or with steady-state azithromycin (Day 19), N=21, arithmetic mean); 2.54 ng/mL in “clinical [11]” (geometric mean, single 0.6 mg dose alone or with steady-state azithromycin); 2.97 ng/mL in data set [8] (setting [20]). The “FMF patients who do not show a beneficial response to colchicine administration” value in the data set on FMF patients is given as 5-10%. Moreover, the Tmax in the data set “clinical [9]” stood at 1.15 h. Also, the “attainment of steady state (trough plasma concentrations)” value in data set [1] (0.6 mg b.i.d.) is given as “by approximately the eighth day of dosing for most subjects”. Besides, the elimination half-life result in [1] (calculated following a single oral dose, stated not an accurate estimate) is “approximately 5 hours”. Besides, in data set [1] (setting [27]), the “Cave, MEAN” value worked out at 1.69722 ng/mL. Also, in data set [1] (setting [27]), the “Cave, MEDIAN” value was 1.70192 ng/mL. The “Cmin, MEDIAN” value in data set [1] (setting [27]) was 0.9035 ng/mL. Also, the “Ke1, MEAN” value in [1] (setting [27]) turned out to be 0.0267 h⁻¹; in data set [1] (setting [28]) it was 0.1829 h⁻¹. Further, the “Ke1, MEDIAN” value in data set [1] (setting [27]) amounted to 0.0261 h⁻¹; in [1] (setting [28]), 0.1992 h⁻¹. For the same compound, the “quantifiability of plasma concentrations after a single dose” value in [1] (single 0.6 mg oral dose, healthy adults) was “no longer quantifiable 24 hours post-dose in all but 1 subject”. Moreover, in data set [1] (single dose or multiple dosing, individual subject data), the secondary colchicine peak entry is “no subject experienced a secondary colchicine peak”. In [1] (steady state, Day 23 and Day 24), the “Cmin prior to the morning dose higher than Cmin prior to the evening dose” value is listed as “approximately 12%”.
